Experimental data from ChEMBL document CHEMBL1144226, “Design and synthesis of 2-amino-isoxazolopyridines as Polo-like kinase inhibitors” (Bioorg Med Chem Lett, 2008).
Calls of active or inactive are those of the source. The rule behind the calls is not given here.

Legend:
cells = conditions: Homo sapiens, HCT-116
[1] = target: Serine/threonine-protein kinase PLK3 (Homo sapiens, UniProt Q9H4B4)
[2] = target: Serine/threonine-protein kinase PLK2 (Homo sapiens, UniProt Q9NYY3)
[3] = target: Serine/threonine-protein kinase PLK1 (Homo sapiens, UniProt P53350)
HCT-116 = experiment: Effect on morphology in human HCT 116 cells assessed as monopolar spindle phenotype; format: functional, cell-based

Serine/threonine-protein kinase PLK1, sequence (P53350 whole entry): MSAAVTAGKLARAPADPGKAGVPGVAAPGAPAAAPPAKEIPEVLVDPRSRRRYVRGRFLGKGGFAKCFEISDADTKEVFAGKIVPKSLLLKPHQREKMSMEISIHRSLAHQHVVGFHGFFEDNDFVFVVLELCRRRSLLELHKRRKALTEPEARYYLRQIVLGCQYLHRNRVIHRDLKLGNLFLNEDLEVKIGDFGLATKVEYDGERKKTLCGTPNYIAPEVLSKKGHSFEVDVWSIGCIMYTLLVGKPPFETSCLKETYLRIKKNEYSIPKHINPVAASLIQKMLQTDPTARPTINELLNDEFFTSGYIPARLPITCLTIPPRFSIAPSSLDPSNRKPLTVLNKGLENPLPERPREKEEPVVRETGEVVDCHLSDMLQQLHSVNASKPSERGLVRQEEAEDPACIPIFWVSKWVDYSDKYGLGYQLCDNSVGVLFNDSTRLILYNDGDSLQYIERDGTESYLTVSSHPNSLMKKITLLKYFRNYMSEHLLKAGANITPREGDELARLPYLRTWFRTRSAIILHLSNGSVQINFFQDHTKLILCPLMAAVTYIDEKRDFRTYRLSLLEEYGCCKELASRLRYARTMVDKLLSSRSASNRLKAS
Serine/threonine-protein kinase PLK3, sequence (Q9H4B4 whole entry): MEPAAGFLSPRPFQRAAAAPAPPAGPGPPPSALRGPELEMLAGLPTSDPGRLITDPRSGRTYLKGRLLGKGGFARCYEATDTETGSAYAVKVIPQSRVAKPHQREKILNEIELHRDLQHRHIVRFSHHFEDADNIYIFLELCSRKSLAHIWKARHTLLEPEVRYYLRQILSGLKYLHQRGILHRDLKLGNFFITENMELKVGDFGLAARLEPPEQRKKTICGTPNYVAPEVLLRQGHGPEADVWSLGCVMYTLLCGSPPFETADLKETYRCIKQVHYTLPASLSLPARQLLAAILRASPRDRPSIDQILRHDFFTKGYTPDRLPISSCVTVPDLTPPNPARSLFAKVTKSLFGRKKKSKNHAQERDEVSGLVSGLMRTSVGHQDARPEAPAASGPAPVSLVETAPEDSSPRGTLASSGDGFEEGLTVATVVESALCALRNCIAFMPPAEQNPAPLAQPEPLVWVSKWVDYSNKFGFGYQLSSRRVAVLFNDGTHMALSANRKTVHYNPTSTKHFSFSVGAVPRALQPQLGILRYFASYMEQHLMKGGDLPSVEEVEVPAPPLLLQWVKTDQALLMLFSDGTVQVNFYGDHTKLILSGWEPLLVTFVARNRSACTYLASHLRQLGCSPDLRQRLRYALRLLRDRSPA
Serine/threonine-protein kinase PLK2, sequence (Q9NYY3 whole entry): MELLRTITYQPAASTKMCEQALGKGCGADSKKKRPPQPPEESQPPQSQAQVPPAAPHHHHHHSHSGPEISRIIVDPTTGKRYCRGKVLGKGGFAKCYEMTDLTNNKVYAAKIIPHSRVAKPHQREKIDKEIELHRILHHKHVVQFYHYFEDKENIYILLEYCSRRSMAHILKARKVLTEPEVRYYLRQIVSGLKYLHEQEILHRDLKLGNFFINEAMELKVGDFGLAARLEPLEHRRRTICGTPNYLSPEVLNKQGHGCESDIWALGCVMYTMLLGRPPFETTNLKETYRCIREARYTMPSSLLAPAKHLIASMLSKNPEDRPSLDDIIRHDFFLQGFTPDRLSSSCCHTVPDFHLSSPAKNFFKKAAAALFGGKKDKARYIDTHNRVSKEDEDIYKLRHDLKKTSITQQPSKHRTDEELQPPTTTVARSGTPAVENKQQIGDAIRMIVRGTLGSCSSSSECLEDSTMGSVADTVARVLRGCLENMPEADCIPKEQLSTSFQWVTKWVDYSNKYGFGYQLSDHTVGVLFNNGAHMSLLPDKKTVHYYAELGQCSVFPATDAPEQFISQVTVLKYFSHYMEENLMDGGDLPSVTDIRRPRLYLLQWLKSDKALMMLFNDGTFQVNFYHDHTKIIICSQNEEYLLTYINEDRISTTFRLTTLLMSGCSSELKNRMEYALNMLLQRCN

SMILES | IC50 (cells) | further results
C[C@H](Nc1cc2c(-c3ccc4c(c3)OCO4)noc2cn1)c1ccccc1 | 7.32 µM | IC50 [1]: 0.024 µM; IC50 [2]: 0.004 µM; IC50 [3]: 0.214 µM
C[C@H](Nc1cc2c(Cc3ccccc3)noc2cn1)c1ccccc1 |  | IC50 [3]: > 20 µM
C[C@H](Nc1cc2c(-c3cccc(Cl)c3)noc2cn1)c1ccccc1 | > 20 µM | 
Cc1cc(C)cc(-c2noc3cnc(N[C@@H](C)c4ccccc4)cc23)c1 | > 20 µM | 
COc1ccc(-c2noc3cnc(N[C@@H](C)c4ccccc4)cc23)cc1OC | > 20 µM | 

The next lines start with results.

IC50 (cells) | SMILES | further results
> 20 µM | Cc1ccc(-c2noc3cnc(N[C@@H](C)c4ccccc4)cc23)cc1 | 
6.69 µM | Cc1cccc(-c2noc3cnc(N[C@@H](C)c4ccccc4)cc23)c1 | 
> 20 µM | C[C@H](Nc1cc2c(-c3ccccc3)noc2cn1)c1ccccc1 | 
8.35 µM | C[C@H](Nc1cc2c(-c3cc(Cl)cc(CCC(N)=O)c3)noc2cn1)c1ccccc1 | Activity (HCT-116): Active
10.2 µM | C[C@H](Nc1cc2c(-c3cc(Cl)cc(CCCO)c3)noc2cn1)c1ccccc1 | 
